# According to PMC3034313 (Bioorganic & medicinal chemistry, 2010):
# Read-outs that look alike come from different tables or passages of the source.
# Key:
# [1] = tested on: HIV-1 IIIB; assay: Antiviral activity; type: cell-based; conditions: Table 1; HIV-1 IIIB in MT-2 cells; 50% reduction in p24 production; ± SD
# [2] = tested on: HIV-1 IIIB; type: cell-based
# [3] = molecular target: NTD of capsid; conditions: affinity for the NTD; cited from earlier work
# [4] = tested on: HIV-1; conditions: cited from earlier work
molecule,measurement,setting,value
"N-Furan-2-ylmethyl-6-methoxy-N-(6-methyl-2-oxo-1,2-dihydro-quinolin-3-ylmethyl)-nicotinamide [Compound 19]",IC50,[1],> 24.8 µM
c1cc(CN2CCCNCCNCCCNCC2)ccc1CN1CCCNCCNCCCNCC1 [AMD3100],infectivity of virions released in the supernatant,"[2]; producer MT-2 cells treated with 1 μg/mL, positive control",no viral infectivity
Cc1ccc(NC(=O)NCCSCc2ccc(CN(C)C)o2)cc1Cl [CAP-1],Kd,[3],~800 µM
same,HIV-1 inhibition in viral infectivity assays,[4],dose-dependent HIV-1 inhibition
same,infectivity of particles produced after treatment,[4],poorly infectious
same,inhibition of virus production,[4],virtually no inhibition of virus production
Cc1ccc2[nH]c(=O)c(CN(Cc3ccco3)C(=O)c3ccc(Cl)cc3)cc2c1 [Compound 6],percentage of infectivity with respect to the untreated control,"[2]; producer MT-2 cells treated with 2.5 μM, p24-normalized, TCID50",about 60%
same,infectivity of virions released in the supernatant,[2]; producer MT-2 cells treated with 5 μM,no viral infectivity
